Experimental data published in patent publication US20250099496A1, “Dihydronicotinamide Riboside (NRH) Therapy for Osteoarthritis and other Conditions” (The Regents of the University of California, priority 2022, published 2025).

Assays:
[1] = tested on: human OA chondrocytes; test: IL-1β-induced nitric oxide (NO) generation in human OA chondrocytes; assay type: cell-based; details: for concentration at which significant inhibition of IL-1β-induced NO release was observed when used alone: chondrocytes, previously demonstrated
Description: The effectiveness of NR on inhibition of IL-1β-induced nitric oxide (NO) generation in human chondrocytes was influenced by the presence or absence of serum (which contains PNP) in the cell culture media. Human OA chondrocytes (donor OA278) were treated with a PNP inhibitor Ulodesine (5 uM) for 2 h and then NR (10 or 100 uM) for 1 h, followed by IL1β (2 ng/ml) for 24 h under serum (10% FCS)-present (FIG. 6A) or serum-free condition (FIG. 6B). The conditioned media was used for measuring generation of nitric oxide (NO), a known contributor of cartilage degradation.
Effectiveness of combination of low-dose of NAD precursors (NR or NRH) with a PNP inhibitor Ulodesine on inhibition of IL-1β-induced nitric oxide (NO) generation in human chondrocytes under the serum-presence condition. Human OA chondrocytes from donor OA277 (FIG. 7A) or OA279 (FIG. 7B) were treated with Ulodesine (5 uM) for 2 h and then NR or NRH at 10 uM for 1 h, followed by IL1p (2 ng/ml) for 24 h under serum-present (10% FCS) condition. The conditioned media was used for measuring NO generation.

[2] = metabolized by PNP; cited from earlier work
[3] = cited from earlier work
[4] = tested on: MSU crystal-induced inflammation; test: MSU crystal-induced inflammation in the gout-like air pouch model in mice; assay type: in vivo; details: via gavage, 400 mg/kg/day
Description: It was observed that blood NAD levels decrease, correlated with increase in CD38 expression in peripheral blood mononuclear cells in gout patients compared to healthy subjects. […] The effect of oral supplementation of NR or NRH (via gavage, 400 mg/kg/day) on MSU crystal-induced inflammation in the gout-like air pouch model in mice was tested (FIG. 8). The development of the air pouch leads to a pouch lining tissue that is morphologically like the synovium in joints, in which injection of sterile-filtered air under the skin on the back of the test animal provides an environment that is used to simulate the effects of diseases such as gout. […] Given the potential of Ulodesine in lowering uric acid and of NR or NRH in limiting MSU crystal-induced inflammation, combination of NR or NRH with Ulodesine, or other PNP inhibitors, presents a novel therapeutic approach for gout.

[5] = cited from earlier work; remark: listed apart in the source
[6] = tested on: cartilage matrix degradation; test: IL-1β-induced release of matrix protein glycosaminoglycan (GAG); assay type: cell-based
Description: (§1) In this study, it was observed that CD38 expression is increased in human knee cartilage of both osteoarthritis (OA) and aged donors (FIGS. 1A and 1B), in primary human knee OA chondrocytes (FIG. 1C) and in chondrocytes stimulated with IL-1, a pro-inflammatory cytokine implicated to play an important role in OA pathogenesis (FIG. 1E). […] In addition, NRH prevented IL-1β-induced CD38 expression at both mRNA and protein levels (FIGS. 2D and 2E) and decline of NAD levels and NAD/NADH ratio (FIGS. 2F and 2G). […] It was observed that NRH has higher potency than NR to inhibit IL-1β-induced catabolic responses in chondrocytes, evidenced by that similar efficacy was achieved by NRH used at concentration 10 times less than NR (data not shown).

[7] = tested on: MMP3; test: IL-1β-induced MMP3 expression at cellular and tissue levels; assay type: cell-based, human; details: cellular (mRNA and protein) levels and tissue levels
Description: as §1

[8] = tested on: human OA chondrocytes; test: Cellular NAD, NADH and NAD/NADH ratio in human OA chondrocytes; assay type: cell-based
Description: as §1

[9] = tested on: MMP13; test: IL-1β-induced MMP13 expression at cellular and tissue levels; assay type: cell-based, human; details: cellular (mRNA and protein) levels and tissue levels
Description: as §1

[10] = tested on: CD38; test: IL-1β-induced CD38 expression in chondrocytes; assay type: cell-based, human; details: mRNA and protein levels
Description: as §1

[11] = tested on: chondrocytes; test: IL-1β-induced catabolic responses in chondrocytes, NRH versus NR; assay type: cell-based; details: inhibition of IL-1β-induced catabolic responses; data not shown
Description: as §1

[12] = tested on: post-traumatic OA model; test: Post-traumatic OA model (DMM surgery) in mice, oral NRH; assay type: in vivo
Description: Given that NRH is a natural NAD precursor with oral bioavailability and its ability to not only promote NAD^+ biosynthesis, but also prohibit NAD^+ degradation by inhibiting CD38, it was next tested whether oral administration of NRH limits OA development in mice using a post-traumatic OA model. Destabilization of medial meniscus (DMM) surgery was performed on the right knee of mice to cause joint injury and started NRH treatment through gavage 2 week after the surgery. Pain behaviors such as pain sensitivity and spontaneous pain were evaluated by Von Frey and static weight bearing tests, respectively, at baseline and every 2 weeks after the surgery. At 10 weeks after the surgery, mice were sacrificed, and knee OA pathological changes including cartilage degradation, synovial inflammation and osteophyte formation were assessed.

[13] = molecular target: PNP (Homo sapiens, UniProt P00491); details: cited from earlier work
[14] = tested on: gout patients; details: each arm: 40, 80 and 120 mg per day; 60 gout patients with baseline SU ≥8 mg/dL; cited from earlier work
[15] = 10 uM alone, serum-present (10% FCS), donors OA277, OA279
[16] = human OA chondrocytes stimulated with NRH
[17] = NRH by gavage from 2 weeks after DMM surgery, assessed at 10 weeks
[18] = at 6, 8 and 10 weeks after the surgery

Sequence of PNP (P00491 whole entry): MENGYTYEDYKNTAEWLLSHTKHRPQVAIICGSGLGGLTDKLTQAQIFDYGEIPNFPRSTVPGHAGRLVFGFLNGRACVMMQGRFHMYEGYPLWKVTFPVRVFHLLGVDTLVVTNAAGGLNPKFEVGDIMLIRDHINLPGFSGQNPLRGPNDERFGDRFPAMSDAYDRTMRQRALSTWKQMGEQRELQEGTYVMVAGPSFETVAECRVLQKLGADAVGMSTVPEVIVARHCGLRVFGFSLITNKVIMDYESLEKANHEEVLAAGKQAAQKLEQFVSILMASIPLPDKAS

NC(=O)c1ccc[n+]([C@@H]2O[C@H](CO)[C@@H](O)[C@H]2O)c1 [NR, nicotinamide riboside]
effect on IL-1β-induced NO release [1, 15]: little effect
effect on IL-1β-induced NO release ([1]; NR 10 and 100 uM, serum-free, donor OA278): robust inhibition
effect on IL-1β-induced NO release ([1]; NR 10 and 100 uM, serum-present (10% FCS), donor OA278): little effect
concentration at which significant inhibition of IL-1β-induced NO release was observed when used alone [1]: 200 µM
stability in plasma (degradation to NAM) [2]: rapidly degraded
tolerability and safety ([3]; chronic oral supplementation, human): well-tolerated, safe
human NAD+ metabolism ([3]; chronic oral supplementation): boosted
blood pressure and exercise performance ([3]; dietary supplementation, elderly individuals): only mild benefits
glucose tolerance and β-cell secretory capacity ([3]; nondiabetic men with obesity): no significant impact
skeletal muscle mitochondria ([3]; obese and insulin-resistant men): no significant impact
MSU crystal-induced infiltrating inflammatory cells [4]: significantly inhibited

NC(=O)C1=CN([C@@H]2O[C@H](CO)[C@@H](O)[C@H]2O)C=CC1 [NRH, dihydronicotinamide riboside]
NRH in circulation after NRH treatment ([5]; mice): detectable
NR in circulation after NRH treatment versus after NR administration ([5]; mouse, in vivo): much higher levels
stability compared to NR ([5]; mouse, in vivo): more stable
IL-1β-induced release of glycosaminoglycan (GAG) [6]: significantly inhibited
IL-1β-induced expression of MMP3 [7]: completely attenuated
IL-1β-induced decline of NAD levels ([8]; IL-1β stimulation): prevented
IL-1β-induced decline of NAD/NADH ratio ([8]; IL-1β stimulation): prevented
NAD/NADH ratio [8, 16]: dramatically increased
cellular levels of NAD [8, 16]: dramatically increased
cellular levels of NADH [8, 16]: dramatically increased
effect on IL-1β-induced NO release [1, 15]: little effect
concentration at which significant inhibition of IL-1β-induced NO release was observed when used alone [1]: 200 µM
IL-1β-induced expression of MMP13 [9]: completely attenuated
IL-1β-induced CD38 expression [10]: prevented
concentration of NRH relative to NR giving similar efficacy [11]: 10 times less
cartilage damage [12, 17]: significantly reduced
osteophyte size and maturity [12, 17]: significantly reduced
synovial inflammation [12, 17]: significantly reduced
paw withdraw threshold (Von Frey) [12, 18]: significantly increased
weight bearing capacity [12, 18]: significantly increased
MSU crystal-induced infiltrating inflammatory cells [4]: significantly inhibited

O=c1[nH]cnc2c(CN3C[C@H](CO)[C@@H](O)C3)c[nH]c12 [Ulodesine]
IC50 for PNP [13]: in the nM concentration range
participants achieving the target SU of less than 6 mg/dL [14]: approximately one third
